Laboratory results published in paper PMC12644462, “A novel radiosensitizer α-sulfoquinovosyl-acylpropanediol (SQAP) inhibits DNA repair pathways and sensitize cells to cancer chemotherapeutic agents” (Scientific Reports, 2025).
Where two headings read alike, the source gives them in different places.

Columns and labels:
[1] = test system: seven canine cancer cell lines; settings: all seven cell lines
Protocol: Sensitivity to radiation or chemical reagents was assessed through colony formation assays. After trypsinized single cells were plated to form 20–200 colonies per dish and then treated with SQAP for 3 h in normoxia or hypoxia, the cells were irradiated. For drug sensitivity study, trypsinized cells were plated and then treated with various dosage of testing agents. After seven days of incubation, colonies were fixed, stained and scored. Regression curves were drawn from survival fraction, and D10 values (doses to achieve 10% cell survival) were calculated by Prism 8 (GraphPad software, San Diego, CA, USA) from at least three independent experiments. Oxygen enhancement ratio (OER) and sensitization enhancement ratio (SER) values were calculated from D10 values. OER values were calculated from the D10 value in hypoxia divided by the D10 value in normoxic condition. SER values were calculated from the D10 value without SQAP divided by the D10 value with SQAP.

CHO cells [2] = assay: Chromosome aberration assay; type: cell-based, Chinese hamster; settings: G1-irradiated CHO cells, 4 Gy, with SQAP
Protocol: Two hours after mitotic shake-off and replating, CHO cells in the G1 phase were irradiated. After 10 h, colcemid was added for 6 h to collect metaphase cells. Chromosome spreads were prepared as sister chromatid exchange assay and stained with a 5% Giemsa stain. At least 50 metaphase spreads were scored in three independent experiments.

HDAC1 expression = test system: HDAC1 expression; set-up: method as in PMID 33577659; settings: hypoxic conditions ref 11; cited from earlier work
[3] = test system: histone deacetylase 1 (HDAC1); set-up: method as in PMID 33577659; settings: cited from earlier work
[4] = test system: dogs and cats with cancer; settings: dogs and cats with cancer receiving radiation therapy ref 8, 9; cited from earlier work
[5] = test system: poly (ADP-ribose) polymerase (PARP); set-up: method as in PMID 37973295; settings: cited from earlier work
CHO cells [6] = assay: G2 premature chromosome condensation (PCC) assay; type: cell-based, Chinese hamster
Protocol: Following treatment with SQAP for 1 h, exponentially growing CHO cells were irradiated and treated with 50 nM of Calyculin A (Sigma-Aldrich) for 30 min as previously described. Cells were then fixed and stained as chromosome aberration analysis. Under a Zeiss Axioskop microscope, chromatid gaps, breaks, iso-breaks and exchanges were all scored as G2-PCC chromatid breaks. At least 50 PCC-spreads were scored in three independent experiments.

For `CCCCCCCCCCCCCCCCCC(=O)OCCCO[C@H]1O[C@H](CS(=O)(=O)O)[C@@H](O)[C@H](O)[C@H]1O` [SQAP, Alpha-sulfoquinovosylacyl-1,3-propanediol], the “cytotoxicity of continuous exposure of SQAP (clonogenic survival)” value ([1]; 30 µM SQAP) was “tolerance”, the “cytotoxicity of continuous exposure of SQAP (clonogenic survival)” value ([1]; 60 µM SQAP) was “minimal cell viability” and the chromosome-type aberrations (CHO cells [2]) was “approximately 2.4”. For the same molecule, the HDAC1 expression (HDAC1 expression) was “reduces”, the HDAC1 enzymatic inhibition [3] was “does not inhibit” and the adverse systemic events [4] was “not detected”. The PARP inhibition [5] was “inhibitory effect”, the “residual PCC levels” value (CHO cells [6]; 1 Gy, after 2 h, with SQAP) was ~4.8 and the “number of G2-PCC chromatid breaks” value (CHO cells [6]; immediately after 1 Gy irradiation, SQAP-treated) was “approximately 10”.
